Literature values as cited in patent US20130337054A1, “TREATMENT OF EXCESSIVE MENSTRUAL BLOOD LOSS BY INTRAVAGINAL ADMINISTRATION OF LOW DOSES OF ANTIFIBRINOLYTIC OR HEMOSTATIC AGENT” (ARSTAT Inc., priority 2011, published 2013).

Experiments:
[1] = system: menorrhagia (menstrual blood loss); conditions: oral; cited from earlier work
[2] = system: postoperative bleeding complications; conditions: mouthwash, compared to placebo; cited from earlier work
[3] = cited from earlier work
menorrhagia = conditions: oral, cited from earlier work
postoperative blood loss = conditions: cited from earlier work

| Compound | difference versus placebo in reduction of large stains, small and large clots and changes in serum ferritin levels [1] | incidence of postoperative bleeding complications [2] | plasma concentration ([3]; after a mouth rinse) | saliva concentration, maximum level ([3]; after a mouth rinse) | time saliva concentration remained at a therapeutic level ([3]; after a mouth rinse) | drug in saliva samples ([3]; after an oral tablet) | mean drug plasma concentration ([3]; after an oral tablet) | risk of gastrointestinal adverse events (menorrhagia; 6 g/day) | efficacy in relation to dose (menorrhagia; EMEA 2000) | plasma drug levels (postoperative blood loss; in vivo) | postoperative blood loss (postoperative blood loss; locally administered) |
| --- | --- | --- | --- | --- | --- | --- | --- | --- | --- | --- | --- |
| NC[C@H]1CC[C@H](C(=O)O)CC1 [tranexamic acid] | no statistically significant differences | reduce the incidence | below 2 mcg/mL | above 200 mcg/mL | more than two | not detected | 7 µg/mL | increased | dose-dependent increase in efficacy | – | – |
| aprotinin | – | – | – | – | – | – | – | – | – | without detectable plasma drug levels | Reduction |
